Test results reported in patent EP0182317A2, “Antineoplastic agent” (priority 1984, dated 1986).

What was measured:
[1] = test system: Ehrlich carcinoma; test: Antineoplastic effect on Ehrlich carcinoma in mice (survival, T/C percent); format: in vivo, male ICR mouse; settings: in the abdomen once a day for 7 days; for response vs control in vivo at 2 mg/kg / response vs control in vivo at 4 mg/kg / response vs control in vivo at 8 mg/kg / response vs control in vivo at 16 mg/kg / response vs control in vivo at 32 mg/kg / response vs control in vivo at 1 mg/kg: Mus musculus, Ehrlich, ip, 720 h
Experimental: Antineoplastic effect on Ehrlich carcinoma:
(§1) About 10^6/0.2 ml of Ehrlich carcinoma cells were placed in an abdomen of each male ICR mouse of 5 weeks old. On the next day the administration of the test sample in the abdomen was started. The test sample was given once a day for 7 days. For an untreated group, a physiological saline solution was given in the same manner as above. […] The T/C percent (T/C x 100) was determined from the average survival periods (days) of the treated group and control group. Further, 50 % lethal dose (LD50) was determined from the number of the mice which died of toxicity of the test samples administered.

[2] = 50 % lethal dose from toxic deaths in the Ehrlich carcinoma experiment; format: in vivo, male ICR mouse; settings: mice bearing Ehrlich carcinoma, in the abdomen once a day for 7 days; for LD50 at 720 h: mouse, in vivo, ip; for LD50: 43200 min
Experimental: as §1

[3] = test system: Salmonella typhimurium TA-98; test: Antimutagenic properties by Ames method with benzo[a]pyrene as mutagen; format: cell-based; settings: for Number of colonies: B(a)P, S-9 mix; for inhibition rate: inhibition of the mutagenic effect of B(a)P
Experimental: The experiment was carried out by Ames method using Salmonella typhimurium TA-98 (hereinafter referred to as TA-98) as the test microorganism and benzo[a]pyrene (hereinafter referred to as B(a)P) as the mutagen.
0.1 ml of a solution containing […] of B(a)P and a suitable amount of a compound of the present invention was added to 0.5 ml of S-9 mix and 0.1 ml of a TA-98 suspension. The mixture was incubated at 37°C for 20 min. 2 ml of soft agar was added thereto, mixed well and then spread evenly on a glucose minimum agar medium plate. After the incubation at 37°C for 48 h, the number of colonies formed by the back mutation was counted.
The number of the colonies formed when neither B(a)P nor the compound of the present invention was used was employed as the background.
The antimutagenic properties was shown as the rate of inhibition of the mutagenic effect according to the following formula: [formula]

[4] = dose 1.0 mg/kg, observation period 60 days
[5] = dose 2.0 mg/kg, observation period 60 days
[6] = dose 4.0 mg/kg, observation period 60 days
[7] = dose 8.0 mg/kg, observation period 60 days
[8] = dose 2.0 mg/kg, observation period 30 days
[9] = dose 4.0 mg/kg, observation period 30 days
[10] = dose 8.0 mg/kg, observation period 30 days

Compound	Antineoplastic effect (T/C percent) [1, 5] [%]	Antineoplastic effect (T/C percent) [1, 6] [%]	Antineoplastic effect (T/C percent) [1, 7] [%]	response vs control in vivo at 2 mg/kg [1, 5] [%]	response vs control in vivo at 4 mg/kg [1, 6] [%]	response vs control in vivo at 8 mg/kg [1, 7] [%]	response vs control in vivo at 16 mg/kg ([1]; observation period 60 days) [%]	LD50 at 720 h [2] [mg/kg]	LD50 [2]	other results
2,2-dimethyl-1,3-propanediol selenite [Compound 18]	193	194	194	–	–	–	–	–	–	Antineoplastic effect (T/C percent) [1, 4]: 164%
2,3-butanediol selenite [Compound 16]	216	261	174	–	–	–	–	–	–	Antineoplastic effect (T/C percent) [1, 4]: 185%
O=[Se](O)c1ccccc1 [Compound 1, phenylseleninic acid]	–	–	–	123	129	141	149	> 16	–	response vs control in vivo at 2 mg/kg [1, 8]: 123%; response vs control in vivo at 4 mg/kg [1, 9]: 129%; response vs control in vivo at 8 mg/kg [1, 10]: 141%; response vs control in vivo at 16 mg/kg ([1]; observation period 30 days): 149%
CCO[Se](=O)c1ccccc1 (stereo not shown) [Compound 2, ethyl phenylseleninate]	–	–	–	–	118	134	193	16 to 32	–	response vs control in vivo at 4 mg/kg [1, 9]: 118%; response vs control in vivo at 8 mg/kg [1, 10]: 134%; response vs control in vivo at 32 mg/kg ([1]; observation period 30 days): 87.9%; response vs control in vivo at 32 mg/kg ([1]; observation period 60 days): 88%; response vs control in vivo at 16 mg/kg ([1]; observation period 30 days): 150%
CCO[Se](=O)OCC [Compound 9, diethyl selenite]	–	–	–	246	203	201	14	4 to 8	–	–
CCCO[Se](=O)OCCC [Compound 10, di(n-propyl) selenite]	–	–	–	175	170	102	14	8	–	–
CC(C)O[Se](=O)OC(C)C [Compound 11, diisopropyl selenite]	–	–	–	204	236	126	14	4 to 8	–	–
O=[Se](OCCCl)OCCCl [Compound 12, di(2-chloroethyl) selenite]	–	–	–	197	225	194	65	8	–	–
CC(Cl)CO[Se](=O)OCC(C)Cl (stereo not shown) [Compound 13, di(2-chloropropyl) selenite]	–	–	–	190	234	219	71	8 to 16	–	–
O=[Se]1OCCO1 [Compound 14, 1,2-ethanediol selenite]	–	–	–	193	266	108	34	4 to 8	–	Number of colonies ([3]; dose 0.5 µg/plate): 231; inhibition rate ([3]; dose 0.5 µg/plate): 23.1%; Number of colonies ([3]; dose 1 µg/plate): 235; inhibition rate ([3]; dose 1 µg/plate): 21.6%; Number of colonies ([3]; dose 5 µg/plate): 156; inhibition rate ([3]; dose 5 µg/plate): 51.1%; Number of colonies ([3]; dose 10 µg/plate): 145; inhibition rate ([3]; dose 10 µg/plate): 55.2%; Number of colonies ([3]; dose 50 µg/plate): 76; inhibition rate ([3]; dose 50 µg/plate): 81.0%; Number of colonies ([3]; dose 100 µg/plate): 62; inhibition rate ([3]; dose 100 µg/plate): 86.2%; Number of colonies ([3]; dose 500 µg/plate): 32; inhibition rate ([3]; dose 500 µg/plate): 97.4%
CC1CO[Se](=O)O1 (stereo not shown) [Compound 15, 1,2-propanediol selenite]	–	–	–	258	204	105	–	8	–	response vs control in vivo at 1 mg/kg [1, 4]: 227%
O=[Se]1OCCCO1 [Compound 17, 1,3-propanediol selenite]	–	–	–	221	197	83	–	4 to 8	–	response vs control in vivo at 1 mg/kg [1, 4]: 174%
selenium oxybromide·dioxane complex [Compound 8]	182	226	228	–	–	–	–	–	8 - 16 mg/kg/day x7	–
selenium oxychloride [Compound 3]	–	–	–	–	–	–	–	–	6 mg/kg/day x7	Number of colonies ([3]; dose 0.5 µg/plate): 205; inhibition rate ([3]; dose 0.5 µg/plate): 30.3%; Number of colonies ([3]; dose 1 µg/plate): 230; inhibition rate ([3]; dose 1 µg/plate): 22.0%; Number of colonies ([3]; dose 5 µg/plate): 154; inhibition rate ([3]; dose 5 µg/plate): 52.0%; Number of colonies ([3]; dose 10 µg/plate): 132; inhibition rate ([3]; dose 10 µg/plate): 60.6%; Number of colonies ([3]; dose 50 µg/plate): 72; inhibition rate ([3]; dose 50 µg/plate): 84.3%; Number of colonies ([3]; dose 100 µg/plate): 70; inhibition rate ([3]; dose 100 µg/plate): 85.6%; Number of colonies ([3]; dose 500 µg/plate): 27; inhibition rate ([3]; dose 500 µg/plate): 100%; Antineoplastic effect (T/C percent) ([1]; dose 0.75 mg/kg, observation period 60 days): 141%; Antineoplastic effect (T/C percent) ([1]; dose 1.5 mg/kg, observation period 60 days): 222%; Antineoplastic effect (T/C percent) ([1]; dose 3.0 mg/kg, observation period 60 days): 168%; Antineoplastic effect (T/C percent) ([1]; dose 6.0 mg/kg, observation period 60 days): 105%
selenium oxychloride·dioxane complex [Compound 7]	211	225	194	–	–	–	–	–	8 - 16 mg/kg/day x7	–
selenium oxychloride·isoquinoline complex [Compound 6]	211	206	187	–	–	–	–	–	–	Antineoplastic effect (T/C percent) [1, 8]: 158.5%; Antineoplastic effect (T/C percent) [1, 9]: 164.8%; Antineoplastic effect (T/C percent) [1, 10]: 162.9%
selenium oxychloride·quinoline complex [Compound 5]	131	199	269	–	–	–	–	–	>16 mg/kg/day x7	Antineoplastic effect (T/C percent) [1, 8]: 131.4%; Antineoplastic effect (T/C percent) [1, 9]: 156.0%; Antineoplastic effect (T/C percent) [1, 10]: 181.8%
selenium tetrabromide [Compound 20]	196	272	183	–	–	–	–	–	8-16 mg/kg/day x7	–
selenium tetrachloride [Compound 19]	179	249	183	–	–	–	–	–	>16 mg/kg/day x7	Antineoplastic effect (T/C percent) [1, 4]: 167%
selenium tetrachloride·pyridine complex [Compound 21]	155	217	246	–	–	–	–	–	8-16 mg/kg/day x7	–
